Laboratory results published in patent US5698581A, “Substituted N-heteroaroylguanidines, a process for their preparation, their use as a medicament or diagnostic agent, and a medicament containing them” (Hoechst Aktiengesellschaft, priority 1994, dated 1997).

target: T1, Na^+ /H^+ exchanger of rabbit erythrocytes (Oryctolagus cuniculus, UniProt P23791); assay: Inhibition of the Na^+ /H^+ exchanger of rabbit erythrocytes (amiloride-sensitive sodium influx, flame photometry); assay type: cell-based, rabbit (New Zealand White); details: pH 7.4, 37° C., rabbits on 2% cholesterol diet
T1 construct: determine the Na^+ influx into the erythrocytes via Na^+ /H^+ exchange; endogenous in cells; host or cells: erythrocytes in whole blood of cholesterol-fed New Zealand White rabbits
Excerpt: Inhibition of the Na^+ /H^+ exchanger of rabbit erythrocytes
New Zealand White rabbits (Ivanovas) were given a standard diet containing 2% cholesterol for six weeks in order to activate Na^+ /H^+ exchange and thus to be able to use flame photometry to determine the Na^+ influx into the erythrocytes via Na^+ /H^+ exchange. The blood was removed from the aural arteries and rendered incoagulable by the addition of 25 IU of potassium heparin. One part of each sample was used for the duplicate determination of the hematocrit by centrifugation. Aliquots of in each case 100 μl were employed for measuring the initial content of Na^+ in the erythrocytes.
In order to determine the amiloride-sensitive sodium influx, 100 μl of each blood sample were in each case incubated, at pH 7.4 and 37° C., in 5 ml of a hyperosmolar salt/sucrose medium (mmol/l: 140 NaCl, 3 KCl, 150 sucrose, 0.1 ouabain, 20 tris(hydroxymethyl)aminomethane). The erythrocytes were then washed three times with ice cold MgCl2 /ouabain solution (mmol/l: 112 MgCl2, 0.1 ouabain) and hemolyzed in 2.0 ml of distilled water. The intracellular content of sodium was determined by flame photometry.
The nett influx of Na^+ was calculated from the difference between the initial sodium values and the sodium content of the erythrocytes following incubation. The amiloride-inhibitable sodium Influx was given by the difference in the sodium content of the erythrocytes following incubation with and without 3×10^-4 mol/l amiloride. The same procedure was also used in the case of the compounds according to the invention.

T1 sequence (P23791 whole entry): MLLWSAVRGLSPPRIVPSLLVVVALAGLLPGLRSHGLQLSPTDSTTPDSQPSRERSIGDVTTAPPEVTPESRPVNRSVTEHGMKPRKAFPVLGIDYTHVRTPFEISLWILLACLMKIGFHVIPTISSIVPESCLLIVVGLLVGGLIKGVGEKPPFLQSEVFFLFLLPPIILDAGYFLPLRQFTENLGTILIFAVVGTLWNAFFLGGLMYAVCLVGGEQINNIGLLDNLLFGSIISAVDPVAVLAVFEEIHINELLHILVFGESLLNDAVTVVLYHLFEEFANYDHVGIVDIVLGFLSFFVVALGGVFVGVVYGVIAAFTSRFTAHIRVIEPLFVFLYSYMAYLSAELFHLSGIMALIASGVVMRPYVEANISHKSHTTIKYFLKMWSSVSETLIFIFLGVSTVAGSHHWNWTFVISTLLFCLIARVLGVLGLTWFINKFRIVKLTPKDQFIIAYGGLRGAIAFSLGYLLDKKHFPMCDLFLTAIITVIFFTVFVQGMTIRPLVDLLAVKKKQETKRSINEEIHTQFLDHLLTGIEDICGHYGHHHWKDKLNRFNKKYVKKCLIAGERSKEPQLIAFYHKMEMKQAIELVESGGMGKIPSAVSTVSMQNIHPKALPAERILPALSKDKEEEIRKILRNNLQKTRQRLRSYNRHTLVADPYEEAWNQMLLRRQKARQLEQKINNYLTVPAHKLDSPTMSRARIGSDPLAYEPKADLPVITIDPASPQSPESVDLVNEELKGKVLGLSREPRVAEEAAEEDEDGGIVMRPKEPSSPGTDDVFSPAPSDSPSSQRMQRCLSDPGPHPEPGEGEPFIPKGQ

IC50 [nM]	Structure (SMILES)
300	Cn1c(C(=O)N=C(N)N)ccc1C(F)(F)C(F)(F)F [Example 3, 5-Pentafluoroethyl-1-methylpyrrole-2-carboguanidide]
5000	Cn1cccc1C(=O)N=C(N)N [Example 5, 1-Methylpyrrole-2-carboguanidide]
500	CC(C)c1sc(C(=O)N=C(N)N)cc1S(C)(=O)=O [Example 6, 5-Isopropyl-4-methylsulfonylthiophene-2-carboguanidide]
200	Cn1c(C(=O)N=C(N)N)ccc1C(F)(F)F [Example 4, 5-Trifluoromethyl-1-methylpyrrole-2-carboguanidide]
500	NC(N)=NC(=O)c1cc(Br)c(Br)s1 [Example 8, 4,5-Dibromothiophene-2-carboguanidide]
3000	Cc1ccc(C(=O)N=C(N)N)s1 [Example 7, 5Methylthiophene-2-carboguanidide]
300	Cn1c(C(=O)N=C(N)N)ccc1C(F)(C(F)(F)F)C(F)(F)F [Example 1, 5-Heptafluoroisopropyl-1-methylpyrrole-2-carboguanidide]

Structure (SMILES)	IC50 [nM]
Cn1c(C(=O)N=C(N)N)ccc1C(F)(F)C(F)(F)C(F)(F)F [Example 2, 5-Heptafluoro-n-propyl-1-methylpyrrole-2-carboguanidide]	1000
